One data set has as its target T1, Human cardiac chymase (Homo sapiens, UniProt P23946).
T1 construct: Human cardiac chymase was purified according to the process of Urata et al; from tissue; host or cells: human heart (cardiac)
T1 sequence (P23946 22-247): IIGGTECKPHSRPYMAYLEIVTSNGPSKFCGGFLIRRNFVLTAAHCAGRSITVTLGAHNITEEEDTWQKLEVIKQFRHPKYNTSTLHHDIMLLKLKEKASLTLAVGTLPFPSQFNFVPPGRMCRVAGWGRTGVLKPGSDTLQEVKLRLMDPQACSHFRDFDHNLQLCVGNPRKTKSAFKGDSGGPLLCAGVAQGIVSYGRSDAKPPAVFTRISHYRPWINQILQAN
The experiment in a line: Inhibitory activity against chymase (Ang I to Ang II conversion, HPLC). In kind it is biochemical. As for the experimental part:
Human cardiac chymase was purified according to the process of Urata et al. (see the literature described above), and the inhibitory activities of the hydantoin compounds according to the present invention against the chymase were determined in the following manner. Namely, 10 μl of the purified chymase and 5 μl of a solution of a sample to be tested in dimethyl sulfoxide (hereinafter abbreviated as "DMSO") were added to 10 μl of a 20 mM Tris-hydrochloric acid buffer (pH 7.5) containing 2M KCl, and the resultant mixture was preincubated at 37° C. for 10 minutes and then added with 25 μl of a 1 mM solution of Ang I, followed by incubation at 37° C. for 30 minutes. Then, 50 μl of 30% acetic acid were added to stop the enzyme reaction. On the other hand, 5 μl of DMSO were added in place of the solution of the test sample to similarly conduct a reaction as a blank test.
(§1) After completion of the reaction, each liquid reaction mixture was subjected to high performance liquid chromatography on Develosil ODS-5 (product of Nomura Kagaku, 4.6 mm across×150 mm long) to develop it at a linear concentration gradient that the concentration of acetonitrile in 0.05% trifluoroacetic acid (hereinafter abbreviated as "TFA") is increased from 0% to 60% in 10 minutes at a flow rate of 2.0 ml/min. Monitoring was performed by the absorbance measurements at 210 nm. Peaks were identified by comparison with standard solutions of Ang I and Ang II. The areas of the peaks were determined by an integrator to quantitate Ang I and Ang II, thereby calculating chymase activity. The inhibitory activity against chymase was determined by calculating an inhibition rate, median inhibitory concentration (IC50) on the basis of the value in the blank test.

For another data set, the target named is T2, cathepsin G (Homo sapiens, UniProt P08311).
T2 construct: cathepsin G (product of Calbiochem Co.) derived from human neutrophil; purchased Calbiochem Co; host or cells: human neutrophil
T2 sequence (P08311 21-244 limits assumed): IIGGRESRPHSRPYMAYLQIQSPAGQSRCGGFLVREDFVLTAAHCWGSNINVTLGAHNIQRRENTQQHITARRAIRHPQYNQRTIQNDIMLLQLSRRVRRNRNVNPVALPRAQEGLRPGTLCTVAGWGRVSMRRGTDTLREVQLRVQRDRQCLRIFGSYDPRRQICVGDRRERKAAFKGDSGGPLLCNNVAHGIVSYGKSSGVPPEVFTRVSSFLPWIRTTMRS
The experiment in a line: Inhibitory activity against cathepsin G (Ang I to Ang II conversion, HPLC). In kind it is biochemical. As for the experimental part:
as §1
To a 20 mM Tris-hydrochloric acid buffer (pH 7.5) containing 2M KCl, were added 20 μl of a solution with cathepsin G (product of Calbiochem Co.) derived from human neutrophil dissolved at a concentration of 2 μg/ml in the same buffer, and 5 μl of a DMSO solution of a sample to be tested, and the resultant mixture was preincubated at 37° C. for 10 minutes and then added with 25 μl of a 1 mM solution of Ang I, followed by incubation at 37° C. for 30 minutes. Then, 50 μl of 30% acetic acid were added to stop the enzyme reaction. On the other hand, 5 μl of DMSO were added in place of the solution of the test sample to similarly conduct a reaction as a blank test. […] The inhibitory activity against cathepsin G was determined by calculating an inhibition rate, median inhibitory concentration (IC50) on the basis of the value in the blank test.

The target in data set [1] is T3, bovine pancreas α-chymotrypsin (Bos taurus, UniProt P00766).
T3 construct: bovine pancreas α-chymotrypsin (product of Sigma Chemical Co., TypeII); purchased Sigma Chemical Co. TypeII; host or cells: bovine pancreas
The experiment in a line: Inhibitory activity against chymotrypsin (Ang I conversion, HPLC). In kind it is biochemical. The procedure:
as §1
To 12 μl of a 20 mM Tris-hydrochloric acid buffer (pH 7.5) containing 2M KCl, were added 8 μl of a solution with bovine pancreas α-chymotrypsin (product of Sigma Chemical Co., TypeII) dissolved at a concentration of 8 μg/ml in a 20 mM aqueous solution of CaCl2 containing 1 mM HCl, and 5 μl of a DMSO solution of a sample to be tested, and the resultant mixture was preincubated at 37° C. for 10 minutes and then added with 25 μl of a 1 mM solution of Ang I, followed by incubation at 37° C. for 15 minutes. Then, 50 μl of 30% acetic acid were added to stop the enzyme reaction. On the other hand, 5 μl of DMSO were added in place of the solution of the test sample to similarly conduct a reaction as a blank test. After completion of the reaction, each liquid reaction mixture was treated by high performance liquid chromatography in the same manner as in Test Example 1 to quantitate Ang I and Ang II, thereby calculating chymotripsin activity. The inhibitory activity against chymotrypsin was determined by calculating an inhibition rate, median inhibitory concentration (IC50) on the basis of the value in the blank test.

The next data set is described as follows: in vivo. As to conditions: mouse, po.
Data set [2] deals with vascular restenosis after the operation of PTCA. As to conditions: random multifacility clinical study, Circulation 1992; cited from earlier work.
The test system of a further data set is chymase. As to conditions: literature, Okunishi et al.; cited from earlier work.
The conditions of data set [3]: cited from earlier work.
Setting [4] is: 37° C., pH 7.5, Ang I substrate, read-out: Inhibitory activities against enzymes (IC50), Chymase.
[5] abbreviates: human neutrophil cathepsin G, 37° C., pH 7.5, Ang I substrate, read-out: Inhibitory activities against enzymes (IC50), Cathepsin.
[6] abbreviates: bovine pancreas, 37° C., pH 7.5, Ang I substrate, read-out: Inhibitory activities against enzymes (IC50), Chymotrypsin.

Like-named read-outs stand apart in the source and are kept apart here.

A word on the IC50: it is the midpoint of a concentration-inhibition curve. As for `O=C1CN(c2ccccc2)C(=O)N1C(=O)c1ccccc1Cl` [Compound 10, 3-(2-chlorobenzoyl)-1-phenyl-imidazolidin-2,4-dione], the 50% inhibitory concentration (IC50) at Human cardiac chymase (setting [4]) is 3.7 µM; on cathepsin G (setting [5]), 0.96 µM; in data set [1] (setting [6]), 3.5 µM.
For `O=C1CN(c2cnc3ccccc3c2)C(=O)N1S(=O)(=O)c1ccc(Cl)cc1` [Compound 80, 3-(4-chlorobenzenesulfonyl)-1-(3-quinolyl)-imidazolidin-2,4-dione], the IC50 on Human cardiac chymase (setting [4]) worked out at 0.17 µM; at cathepsin G (setting [5]), 19 µM; in data set [1] (setting [6]), 90 µM.
For `Cc1ccc(S(=O)(=O)N2C(=O)CN(c3ccccc3)C2=O)cc1` [Compound 5, 1-phenyl-3-(4-toluenesulfonyl)-imidazolidin-2,4-dione], the IC50 at cathepsin G (setting [5]) came out at 4.5 µM; in data set [1] (setting [6]) it was 7 µM.
On to `CC(C)(C)OC(=O)c1cccc(N2CC(=O)N(S(=O)(=O)c3ccc(Cl)cc3)C2=O)c1` [Compound 55], for which the IC50 was determined as 15 µM on Human cardiac chymase (setting [4]), 9.8 µM on cathepsin G (setting [5]) and 70 µM in data set [1] (setting [6]).
Usually inhibition stands for the share of the control response that was lost under treatment. As for `Cc1ccc(N2CC(=O)N(S(=O)(=O)c3ccc(C)c(C)c3)C2=O)cc1C` [Compound 60], the IC50 on Human cardiac chymase (setting [4]) came to 0.06 µM; on cathepsin G (setting [5]) it was 1.7 µM. For the same molecule, the inhibition at 100 µM in data set [1] was found to be 33.6%.
As for `C=CCOC(=O)Cc1cccc(S(=O)(=O)N2C(=O)CN(c3ccccc3)C2=O)c1` [Compound 45, 3-(3-allyloxycarbonylmethylbenzenesulfonyl)-1-phenyl-imidazolidin-2,4-dione], the IC50 is 0.45 µM at Human cardiac chymase (setting [4]), 4.5 µM on cathepsin G (setting [5]) and 3.5 µM in data set [1] (setting [6]).
For `O=C1CN(c2ccccc2)C(=O)N1C(=O)c1ccc(-c2ccccc2)cc1` [Compound 15, 3-(4-phenylbenzoyl)-1-phenyl-imidazolidin-2,4-dione], in that order: 14 µM, 3.2 µM and 6.9 µM.
On to `O=C1CN(c2ccc(Oc3ccccc3)cc2)C(=O)N1S(=O)(=O)c1ccc(Cl)cc1` [Compound 30, 3-(4-chlorobenzenesulfonyl)-1-(4-phenoxyphenyl)-imidazolidin-2,4-dione], for which the IC50 on cathepsin G (setting [5]) is 4.8 µM; in data set [1] (setting [6]) it was 39 µM.
By LD50 is commonly meant the dose expected to kill half of the subjects tested. Higher therefore signals a less toxic substance. As to `Cc1ccccc1S(=O)(=O)N1C(=O)CN(c2ccccc2)C1=O` [Compound 2, 1-phenyl-3-(2-toluenesulfonyl)-imidazolidin-2,4-dione], in the data set “in vivo”, the LD50 at 24 h is at least 1000 mg/kg and the selectivity ratio at 24 h is at least 50.
Regarding `COC(=O)c1cccc(S(=O)(=O)N2C(=O)CN(c3ccccc3)C2=O)c1` [Compound 35, 3-(3-methoxycarbonylbenzenesulfonyl)1-phenyl-imidazolidin-2,4-dione], the IC50 in data set [1] (setting [6]) worked out at 1.8 µM.
As to `CCOC(=O)[C@H](CCc1ccccc1)N[C@H]1CCCN2CCC[C@@H](C(=O)O)N2C1=O` [cilazapril], the “prophylactic effect on vascular restenosis after PTCA versus placebo” value in data set [2] is on record as “no statistically significant difference”.
Turning to `CC(C)C[C@H](NC(=O)[C@@H](NC(=O)N[C@@H](Cc1ccccc1)C(=O)O)[C@@H]1CCN=C(N)N1)C(=O)N[C@H](C=O)Cc1ccccc1` [chymostatin], the “inhibition of the enzymatic activity of chymase, in words” value with chymase was “inhibited by chymostatin”. The “decomposition of peptide linkage in vivo” value in data set [3] was “easily decomposed in vivo”.
As to `O=C1CN(c2ccccc2)C(=O)N1S(=O)(=O)c1cccc2ccccc12` [Compound 70, 3-(1-naphthysulfonyl)-1-(phenyl)-imidazolidin-2,4-dione], the concentration for half-maximal inhibition (IC50) was 0.55 µM on Human cardiac chymase (setting [4]), 1.8 µM at cathepsin G (setting [5]) and 1.6 µM in data set [1] (setting [6]).
For `C=CCOC(=O)c1ccc(S(=O)(=O)N2C(=O)CN(c3ccc(C)c(C)c3)C2=O)cc1` [Compound 65, 3-(4-allyloxycarbonylbenzenesulfonyl)-1-(3,4-dimethylphenyl)-imidazolidin-2,4-dione], in that order: 0.027 µM, 1.9 µM and 8.5 µM.
As to `O=C1CN(c2ccc(Cl)cc2)C(=O)N1S(=O)(=O)c1ccc(Cl)cc1` [Compound 1, 3-(4-chlorobenzenesulfonyl)-1-(4-chlorophenyl)imidazolidin-2,4-dione], the IC50 on Human cardiac chymase (setting [4]) was found to be 0.3 µM; at cathepsin G (setting [5]) it was 1.5 µM; in data set [1] (setting [6]) it was 0.5 µM. The molecule further showed a median lethal dose (LD50) at 24 h in “in vivo” of at least 1000 mg/kg. Moreover, the selectivity ratio at 24 h in the data set “in vivo” is at least 50.
Turning to `O=C1CN(c2ccccc2)C(=O)N1S(=O)(=O)c1cccc(Oc2ccccc2)c1` [Compound 25, 3-(3-phenoxybenzenesulfonyl)-1-phenyl-imidazolidin-2,4-dione], the IC50 amounted to 3.3 µM at cathepsin G (setting [5]) and 1.4 µM in data set [1] (setting [6]).
Consider `O=C(O)COc1ccc(S(=O)(=O)N2C(=O)CN(c3ccccc3)C2=O)cc1` [Compound 40, 3-(4-carboxymethyloxybenzenesulfonyl)-1-phenyl-imidazolidin-2,4-dione], for which the IC50 was determined as 10 µM on Human cardiac chymase (setting [4]), 7 µM on cathepsin G (setting [5]) and 34 µM in data set [1] (setting [6]).
Regarding `COc1cccc(S(=O)(=O)N2C(=O)CN(c3ccccc3)C2=O)c1` [Compound 20, 1-phenyl-3-(3-methoxybenzenesulfonyl)-imidazolidin-2,4-dione], the IC50 at cathepsin G (setting [5]) turned out to be 8 µM; in data set [1] (setting [6]), 3.7 µM.
As for `O=C1CN(c2ccc(Cl)c(Cl)c2)C(=O)N1S(=O)(=O)c1ccc2ccccc2c1` [Compound 75, 1-(3,4-dichlorophenyl)-3-(2-naphthylsulfonyl)imidazolidin-2,4-dione], the IC50 is 0.047 µM on Human cardiac chymase (setting [4]), 0.52 µM at cathepsin G (setting [5]) and 2.4 µM in data set [1] (setting [6]).
On to `CN1CCN(C(=O)Cc2ccc(S(=O)(=O)N3C(=O)CN(c4ccccc4)C3=O)cc2)CC1` [Compound 50, 3-(4-N-methylpiperazylcarbonyl-methylbenzenesulfonyl)-1-phenyl-imidazolidin-2,4-dione], for which the results for the IC50 (at Human cardiac chymase; against cathepsin G; in data set [1]) were 0.85 µM, 11 µM and 5.2 µM, respectively.

Values taken from patent US5691335A, “Imidazolidine derivative and use thereof” (Suntory Limited, priority 1994, dated 1997).
